Series [1] can be described thus: Image-based single particle analysis (SPA) solubility measurement of amorphous and crystalline samples. The series is classed as physicochemical. The conditions noted are these: for DS (degree of supersaturation, amorphous vs crystalline solubility), SPA method: Milli-Q ultrapure water, type 1. The procedure:
The constant flow continuously displaces drug molecules from the surface of the dissolving particle. […] (Figure 1). The solubilities of all five crystalline and amorphous samples were measured in triplicate in Milli-Q water. […] The obtained solubility values, therefore, were the average of three independent measurements, where at least ten particles per single measurement were analyzed. Additionally, amorphous IND was also measured in HCl buffer pH 2.0 in the presence of 0.1% (w/v) polyvinylpyrolidone (PVP). The additional measurement using PVP was performed in order to assess the need for a crystallization inhibitor in the SPA experiments. The solubilities of the amorphous and crystalline samples were measured in Milli-Q water and USP buffers as soon as the solvent came in contact with particles.

Series [2] can be described thus: Theoretical estimation of DS by the Hoffman method from DSC and DVS data. The series is classed as physicochemical. The procedure: Samples of 5–10 mg were tightly packed into standard aluminum crucibles (40 μL) with pierced lids. The samples were equilibrated at 25 °C for 3 min and then linearly heated with a heating rate of 10 °C/min to 20 °C above their respective melting points. Measurements of both amorphous and crystalline samples were recorded in triplicate, and thermal events were analyzed using the STARe software (Mettler-Toledo, Greifensee, Switzerland). Temperatures and melting enthalpies were used to estimate the free energy difference between the amorphous and crystalline forms.
The water sorption isotherms of the five amorphous drug samples were determined using the method previously described by Murdande et al.[10] A VTI-SA+ Vapor Sorption Analyzer (TA Instruments, New Castle, DE, USA) was used to measure the moisture sorption profiles of the amorphous samples. Approximately 10 mg of amorphous sample was placed into a glass holder. To reduce the possibility of sample crystallization during the measurement, no drying step was used. The DVS measurements were performed at 25 °C from 0 to 95% relative humidity (in 10% steps up to 90%). The equilibrium criterion was 0.001% weight change in 5 min with a maximum step time of 150 min. The instrument is calibrated once a month.
According to Hoffman, the difference in Gibbs free energy (ΔG) between the crystalline and the amorphous form can be estimated using eq 4.[15]Hm, Tm, and T are the melting enthalpy of the crystalline form, the melting temperature of the crystalline form, and the experimental temperature measured in Kelvin, respectively. Using the ΔG estimation, the maximum DS due to amorphization was predicted according to Hancock and Parks[9] and corrected for the impact of water on the amorphous solute as proposed by Murdande et al. through eq 5.[10]R and exp(−I(a2)) are the gas constant and a correction factor obtained from DVS measurements, as shown by Murdande et al.[10]

The conditions of series [3]: cited from earlier work.
The conditions of series [4]: cited from earlier work. This is another data set of the same source.
Series [5] in a line: Dynamic water sorption (DVS) of amorphous samples. The series is classed as physicochemical. As to conditions: above RH 80%, 25 °C.

Like-named read-outs stand apart in the source and are kept apart here. Marks after values point to notes of the source that are not given here.

For `Cc1ccc(-c2cc(C(F)(F)F)nn2-c2ccc(S(N)(=O)=O)cc2)cc1` [CEL, Celecoxib], the “DS (degree of supersaturation, amorphous vs crystalline solubility), SPA method” value in series [1] came to 18.9. In series [2], the “DS, theoretical estimation (Hoffman method with correction for the effect of water on the amorphous solute)” value is 21.7. For the same compound, the “DS, literature, dissolution in water” value in series [3] (distilled water) is on record as 3.1 ^c^, ^h. Further, the “DS range reported in the literature” value in series [4] (temperature range of 34–75 °C) is listed as 7–21.

As to `C#C[C@]1(O)CC[C@H]2[C@@H]3CCC4=Cc5oncc5C[C@]4(C)[C@H]3CC[C@@]21C` [DAN, Danazol], the “DS, theoretical estimation (Hoffman method with correction for the effect of water on the amorphous solute)” value in series [2] is given as 23.9. Further, the “DS, literature, dissolution in water” value in series [3] (deionized water) is given as 3.0 ^d^, ^i. For the same compound, the “DS, literature, theoretical estimation” value in series [4] is on record as 26.5 ^i.

In the case of `OCCN(CCO)c1nc(N2CCCCC2)c2nc(N(CCO)CCO)nc(N3CCCCC3)c2n1` [DIP, Dipyridamole], the “DS (degree of supersaturation, amorphous vs crystalline solubility), SPA method” value in series [1] worked out at 15.3. In addition, in series [2], the “DS, theoretical estimation (Hoffman method with correction for the effect of water on the amorphous solute)” value is 6.6 and the “DS, theoretical estimation based solely on ΔG, without the correction for the adsorbed water” value was 15.2. For the same compound, the “sample mass loss in DVS experiment (crystallization, water expelled)” value in series [5] is 0.39%. For the same compound, in series [4], the “DS, literature, theoretical estimation” value was 10 ^k.

In the case of `COC1=CC(=O)C[C@@H](C)[C@]12Oc1c(Cl)c(OC)cc(OC)c1C2=O` [GRI, griseofulvin], the “DS (degree of supersaturation, amorphous vs crystalline solubility), SPA method” value in series [1] worked out at 29.8. Besides, in series [2], the “DS, theoretical estimation (Hoffman method with correction for the effect of water on the amorphous solute)” value is recorded as 34.6. Further, the “DS, literature, dissolution in water” value in series [3] (deionized water) is on record as 1.4 ^d^, ^i. Besides, the figures for the “DS, literature, theoretical estimation” value in series [4] (approach by Almeida et al.) and in series [4] were 30.9 and 29.1, respectively.

In the case of `COc1ccc2c(c1)c(CC(=O)O)c(C)n2C(=O)c1ccc(Cl)cc1` [IND, indomethacin], the “DS (degree of supersaturation, amorphous vs crystalline solubility), SPA method” value in series [1] came out at 20.4. Also, the “effect of PVP in the dissolution medium on the solubility of the amorphous form, SPA method” value in series [1] (USP HCl buffer pH 2.0 with vs without PVP 0.1% (w/v)) is “did not affect”. For the same compound, the “DS, theoretical estimation (Hoffman method with correction for the effect of water on the amorphous solute)” value in series [2] is listed as 18.7. Further, the “DS, literature, dissolution in water” value in series [3] (deionized water) was 4.9 ^d^, ^i. Moreover, in series [4], the “DS, literature, theoretical estimation” value is 20.8 ^i.
